System: C57BL/6 mice
Assay: In vivo food intake and body weight in C57BL/6 mice
Settings: 30 nmol/kg subcutaneously every day for 10 days
Procedure: 10 week old male C57BL/6 mice were injected everyday subcutaneously with 30 nmol/kg of the fusion proteins for 10 days (n=5/group), semaglutide was studied in parallel as a control. Body weight (BW) was measured daily for each individual animal and food intake was measured daily for each entire treatment group. Day 1 and Day 10 are the first day and the last day of treatment. % BW loss=100*(BW on Day n−BW on Day 1)/(BW on Day 1). Cumulative food intake on Day n represents sum of food intake from Day 1 to Day n. Data are indicated as mean values and standard error (SEM) or pooled values. Body weight reduction on Day 11 is calculated by −1*(% BW loss of treatment group-% BW loss of vehicle group); Cumulative food intake reduction on Day 11 is calculated by −100*(cumulative food intake of treatment group−cumulative food intake of vehicle group)/cumulative food intake of vehicle group.

semaglutide [reference compound]
Body weight reduction at 30 nmol/kg (% reduction compared to vehicle) (Day 11): 7.27%
Cumulative food intake reduction at 30 nmol/kg (% reduction compared to vehicle) (Day 11): 11.8%

From US11884711B2, “Fusion proteins of GDF15 and use thereof” (BEIJING QL BIOPHARMACEUTICAL CO., LTD., priority 2020, dated 2024)
